Reference: the OligoGym collection
“And” between values parts separate entries of the source, which are not always exact repeats. Identical values can stand only once. HELM strings list units from the 5' end as sugar, base in round brackets, then linkage (d deoxyribose, r ribose, m 2'-O-methyl, p phosphodiester). Strings are as the collection lists them, not checked against the first reports. ss, as = sense and antisense strand; [lna] = locked nucleic acid (LNA); [fl2r] = 2'-fluoro

Details: siRNA
Note: test system not given here.

Substance	target mRNA knockdown
RNA1{r(A)p.r(C)p.r(C)p.r(G)p.r(A)p.r(C)p.r(G)p.r(A)p.r(U)p.r(U)p.r(C)p.r(U)p.r(U)p.r(C)p.r(U)p.r(A)p.r(C)p.r(U)p.r(C)p.r(T)p.r(T)}|RNA2{r(G)p.r(A)p.r(G)p.m(U)p.r(A)p.r(G)p.r(A)p.r(A)p.r(G)p.r(A)p.r(A)p.r(U)p.r(C)p.r(G)p.r(U)p.r(C)p.r(G)p.r(G)p.r(U)p.r(T)p.r(T)}$$$RNA1{StrandType:ss}|RNA2{StrandType:as}$	68%
RNA1{r(C)p.r(U)p.r(G)p.r(G)p.r(U)p.r(A)p.r(A)p.r(A)p.r(G)p.r(C)p.r(A)p.r(U)p.r(U)p.r(C)p.r(A)p.r(G)p.r(U)p.r(A)p.r(U)p.d(T)p.d(T)}|RNA2{r(A)p.r(U)p.r(A)p.r(C)p.r(U)p.r(G)p.r(A)p.r(A)p.r(U)p.r(G)p.r(C)p.r(U)p.r(U)p.r(U)p.r(A)p.r(C)p.r(C)p.r(A)p.r(G)p.d(T)p.d(T)}$$$RNA1{StrandType:ss}|RNA2{StrandType:as}$	82%
RNA1{r(G)p.r(A)p.r(A)p.m(U)p.r(A)p.r(A)p.r(C)p.r(C)p.r(U)p.r(G)p.r(A)p.r(A)p.r(C)p.r(G)p.r(U)p.r(C)p.r(A)p.r(C)p.r(C)p.r(T)p.r(T)}|RNA2{r(G)p.r(G)p.r(U)p.r(G)p.r(A)p.r(C)p.r(G)p.r(U)p.r(U)p.r(C)p.r(A)p.r(G)p.r(G)p.r(U)p.m(U)p.r(A)p.r(U)p.r(U)p.r(C)p.r(T)p.r(T)}$$$RNA1{StrandType:ss}|RNA2{StrandType:as}$	55%
RNA1{r(C)p.r(U)p.r(U)p.r(A)p.r(C)p.r(G)p.r(C)p.r(U)p.r(G)p.r(A)p.r(G)p.r(U)p.r(A)p.r(C)p.r(U)p.r(U)p.r(C)p.r(G)p.r(A)p.r(T)p.r(T)}|RNA2{r(T)p.r(C)p.r(G)p.r(A)p.r(A)p.r(G)p.r(U)p.r(A)p.r(C)p.r(U)p.r(C)p.r(A)p.r(G)p.r(C)p.[lna](G)p.r(U)p.r(A)p.r(A)p.r(G)p.[lna](T)p.[lna](T)}$$$RNA1{StrandType:ss}|RNA2{StrandType:as}$	87%
RNA1{r(A)p.r(A)p.r(C)p.r(C)p.r(C)p.r(A)p.r(C)p.r(C)p.r(A)p.r(C)p.r(A)p.r(G)p.r(C)p.m(U)p.m(A)p.r(G)p.r(A)p.r(A)p.r(C)p.m(U)p.m(U)}|RNA2{r(A)p.r(A)p.r(G)p.r(U)p.r(U)p.r(C)p.m(U)p.m(A)p.r(G)p.r(C)p.r(U)p.r(G)p.r(U)p.r(G)p.r(G)p.r(U)p.r(G)p.r(G)p.r(G)p.r(U)p.r(U)}$$$RNA1{StrandType:ss}|RNA2{StrandType:as}$	51%
RNA1{m(A)p.r(A)p.m(G)p.r(G)p.m(A)p.r(G)p.m(A)p.r(U)p.m(C)p.r(A)p.m(A)p.r(C)p.m(A)p.r(U)p.m(U)p.r(U)p.m(U)p.r(C)p.m(A)p.r(T)p.r(T)}|RNA2{r(U)p.m(G)p.r(A)p.m(A)p.r(A)p.m(A)p.r(U)p.m(G)p.r(U)p.m(U)p.r(G)p.m(A)p.r(U)p.m(C)p.r(U)p.m(C)p.r(C)p.m(U)p.r(U)p.r(T)p.r(T)}$$$RNA1{StrandType:ss}|RNA2{StrandType:as}$	65%
RNA1{[lna](A)p.r(U)p.r(C)p.r(U)p.r(G)p.r(A)p.r(A)p.r(G)p.r(A)p.r(A)p.r(G)p.r(G)p.r(A)p.r(G)p.r(A)p.r(A)p.r(A)p.r(A)p.r(A)p.[lna](T)p.[lna](T)}|RNA2{[lna](T)p.r(U)p.r(U)p.r(U)p.r(U)p.r(C)p.r(U)p.r(C)p.r(C)p.r(U)p.r(U)p.r(C)p.r(U)p.r(U)p.r(C)p.r(A)p.r(G)p.r(A)p.r(U)p.[lna](T)p.[lna](T)}$$$RNA1{StrandType:ss}|RNA2{StrandType:as}$	65% and 75%
RNA1{r(A)p.r(U)p.m(C)p.r(A)p.m(C)p.r(A)p.r(A)p.r(A)p.r(C)p.r(C)p.r(C)p.r(C)p.r(U)p.r(A)p.r(G)p.r(A)p.r(G)p.r(G)p.r(G)p.r(T)p.r(T)}|RNA2{r(C)p.r(C)p.r(C)p.r(U)p.r(C)p.m(U)p.r(A)p.r(G)p.r(G)p.r(G)p.r(G)p.r(U)p.r(U)p.r(U)p.r(G)p.m(U)p.r(G)p.r(A)p.r(U)p.r(T)p.r(T)}$$$RNA1{StrandType:ss}|RNA2{StrandType:as}$	75%
RNA1{r(C)p.r(U)p.r(C)p.m(C)p.r(C)p.m(C)p.r(A)p.r(G)p.r(U)p.m(C)p.r(U)p.r(C)p.r(U)p.r(C)p.r(U)p.m(U)p.r(A)p.r(A)p.r(A)p.r(T)p.r(T)}|RNA2{r(U)p.r(U)p.m(U)p.r(A)p.r(A)p.r(G)p.r(A)p.r(G)p.r(A)p.r(G)p.r(A)p.r(C)p.m(U)p.r(G)p.r(G)p.r(G)p.r(G)p.r(A)p.r(G)p.r(T)p.r(T)}$$$RNA1{StrandType:ss}|RNA2{StrandType:as}$	68%
RNA1{r(G)p.r(G)p.r(A)p.r(A)p.r(G)p.r(A)p.r(A)p.r(G)p.r(A)p.r(U)p.r(A)p.r(G)p.r(A)p.r(G)p.r(C)p.r(A)p.r(U)p.r(C)p.r(C)p.r(T)p.r(T)}|RNA2{r(G)p.r(G)p.r(A)p.r(U)p.r(G)p.r(C)p.r(U)p.r(C)p.[fl2r](U)p.r(A)p.r(U)p.r(C)p.r(U)p.r(U)p.r(C)p.r(U)p.r(U)p.r(C)p.r(C)p.r(T)p.r(T)}$$$RNA1{StrandType:ss}|RNA2{StrandType:as}$	37%
RNA1{r(G)p.r(G)p.r(C)p.m(C)p.r(A)p.r(A)p.r(A)p.r(G)p.m(U)p.r(A)p.r(A)p.r(U)p.r(C)p.r(G)p.m(U)p.r(G)p.r(G)p.r(U)p.r(U)p.r(T)p.r(T)}|RNA2{r(A)p.r(A)p.r(C)p.m(C)p.r(A)p.r(C)p.r(G)p.r(A)p.r(U)p.m(U)p.r(A)p.r(C)p.r(U)p.r(U)p.m(U)p.r(G)p.r(G)p.r(C)p.r(C)p.r(T)p.r(T)}$$$RNA1{StrandType:ss}|RNA2{StrandType:as}$	86%
RNA1{r(A)p.r(C)p.r(G)p.r(U)p.m(C)p.r(A)p.r(C)p.r(C)p.r(G)p.r(A)p.r(G)p.r(G)p.r(A)p.r(G)p.r(A)p.r(A)p.r(G)p.m(U)p.r(A)p.r(T)p.r(T)}|RNA2{r(U)p.r(A)p.r(C)p.r(U)p.r(U)p.r(C)p.r(U)p.r(C)p.r(C)p.r(U)p.r(C)p.r(G)p.r(G)p.m(U)p.r(G)p.r(A)p.r(C)p.r(G)p.r(U)p.r(T)p.r(T)}$$$RNA1{StrandType:ss}|RNA2{StrandType:as}$	48%
RNA1{r(G)p.[fl2r](C)p.r(A)p.r(G)p.[fl2r](C)p.r(A)p.[fl2r](C)p.r(G)p.r(A)p.[fl2r](C)p.[fl2r](U)p.[fl2r](U)p.[fl2r](C)p.[fl2r](U)p.[fl2r](U)p.[fl2r](C)p.r(A)p.r(A)p.r(G)p.r(T)p.r(T)}|RNA2{r(C)p.r(U)p.r(U)p.r(G)p.r(A)p.r(A)p.r(G)p.r(A)p.r(A)p.r(G)p.r(U)p.r(C)p.r(G)p.r(U)p.r(G)p.r(C)p.r(U)p.r(G)p.r(C)p.r(T)p.r(T)}$$$RNA1{StrandType:ss}|RNA2{StrandType:as}$	92%
RNA1{m(G)p.r(C)p.m(A)p.m(G)p.m(A)p.m(G)p.m(A)p.m(A)p.r(U)p.r(C)p.r(U)p.m(A)p.r(C)p.r(C)p.r(U)p.r(U)p.r(U)p.r(C)p.r(C)p.r(T)p.r(T)}|RNA2{r(G)p.r(G)p.r(A)p.r(A)p.r(A)p.r(G)p.r(G)p.r(U)p.r(A)p.r(G)p.r(A)p.r(U)p.r(U)p.r(C)p.r(U)p.r(C)p.r(U)p.r(G)p.r(C)p.r(T)p.r(T)}$$$RNA1{StrandType:ss}|RNA2{StrandType:as}$	65%
